These results are taken from patent publication US20210378281A1, “INHIBITION OF SENSORY IRRITATION DURING CONSUMPTION OF NON-SMOKEABLE TOBACCO PRODUCTS” (priority 2010, published 2021).

Values joined by “and” are separate entries in the source; they are usually repeats but may differ in a detail not shown here. Identical values can stand only once. “Also recorded” adds a separate entry of the source.

Data set [1] has as its system tongues of human volunteers. As to the kind of experiment: pre-treatment with camphor on sensory irritation from nicotine, tongues of human volunteers. Format: in vivo. The conditions noted are these: camphor 25, 50 or 100 ppm, 20 microliters on strip for 30 seconds before 0.1-0.3% nicotine. An excerpt: FIGS. 1 and 2 show the results of a study on the effect of pre-treatment with camphor on sensory irritation from nicotine. Camphor was applied to tongues of human volunteers prior to application of a nicotine solution. Randomized sides of tongues were selected for application of 20 microliters of 0 ppm, 25 ppm, 50 ppm, or 100 ppm of camphor on a strip (thus, about […], respectively) for 30 seconds. Then, the subjects sipped, rinsed, then spit 0.1%, 0.2%, or 0.3% of a nicotine solution for a 5 second application. Participants were then asked which side of the tongue has the strongest burning sensation. Responses were collected both immediately (within 5 seconds) (FIG. 1) and after 30 seconds (FIG. 2). Controls received no camphor, and a baseline was established at zero camphor.

The test system of another data set is mouth of participants. Put plainly: threshold of irritation from camphor, oral sip and swish of camphor solution. Format: in vivo, human. The arrangement: key to irritation felt at 200 ppm / irritation felt at 300 ppm / irritation felt at 400 ppm / irritation felt at 1000 ppm / irritation felt at 2000 ppm / irritation felt at 4000 ppm / irritation felt at 6000 ppm: Y: the participant felt irritation at the indicated concentration; N: no irritation was felt. As to the method: A further study was conducted to determine the threshold at which camphor itself would cause sensory irritation.
Each test used two milliliters (2 ml) of a camphor solution. The camphor was dissolved in ethanol and further diluted in water. Participants received sequentially increasing concentration of camphor. Nine participants received samples including food grade racemic camphor, with concentrations of 200, 300, 400, […] 1000, 2000, 4000, 6000 ppm (corresponding to about […] per sample, respectively).
Participants wore nose clips during evaluation. Each participant sipped the sample, swished it in the mouth for 10 seconds, then spat it out. Each participant then indicated whether irritation was perceived. Between evaluations of each sample, participants rinsed with water and waited for one minute.
The left-most column indicates the participant number of each individual participant.

Data set [2] has as its system mouth of subjects using oral tobacco. As to the kind of experiment: snus pouches with camphor, perceived burning in the mouth, 2AFC design. Format: in vivo, human. As to the method:
A further study was conducted to determine if camphor affected perceived burning in the mouth of subjects using oral tobacco. Participants were given two snus pouch samples to use simultaneously, one in each side of the mouth. One sample was a control pouch with no camphor added and the other contained various concentrations of camphor ([…], based on tobacco weight, respectively). The hand-made test samples were constructed using unflavored tobacco (12% oven volatiles) to prevent any possible interference of the flavor system with the objective of the study. In preparing the pouches, the camphor was dissolved in 95% ethanol, with the control pouches receiving the ethanol only. Ten (10) microliters of one of the solutions was applied to each sample pouch (5 microliters per side). […] Responses were recorded on paper by the experimenter. […] Following each evaluation, participants were asked to give details regarding where the burning was felt and to provide any open-ended comments regarding their experience, which were recorded on paper by the experimenter. Participants repeated the sensory evaluation procedures an additional six (6) times, with a maximum of two (2) pairs being evaluated each day.

The subject of a further data set is nerve fibers. The conditions noted are these: isolated mouse trachea model; cited from earlier work.
For a further data set, the system named is TRPV1 receptors. The conditions noted are these: increasing their responsiveness; J. Neurophysiol., 91: 1482-1491, 2004; cited from earlier work.
A further data set deals with TRPA1 receptors (Homo sapiens, UniProt O75762). The conditions noted are these: cited from earlier work.
TRPA1 receptors, sequence (O75762 whole entry): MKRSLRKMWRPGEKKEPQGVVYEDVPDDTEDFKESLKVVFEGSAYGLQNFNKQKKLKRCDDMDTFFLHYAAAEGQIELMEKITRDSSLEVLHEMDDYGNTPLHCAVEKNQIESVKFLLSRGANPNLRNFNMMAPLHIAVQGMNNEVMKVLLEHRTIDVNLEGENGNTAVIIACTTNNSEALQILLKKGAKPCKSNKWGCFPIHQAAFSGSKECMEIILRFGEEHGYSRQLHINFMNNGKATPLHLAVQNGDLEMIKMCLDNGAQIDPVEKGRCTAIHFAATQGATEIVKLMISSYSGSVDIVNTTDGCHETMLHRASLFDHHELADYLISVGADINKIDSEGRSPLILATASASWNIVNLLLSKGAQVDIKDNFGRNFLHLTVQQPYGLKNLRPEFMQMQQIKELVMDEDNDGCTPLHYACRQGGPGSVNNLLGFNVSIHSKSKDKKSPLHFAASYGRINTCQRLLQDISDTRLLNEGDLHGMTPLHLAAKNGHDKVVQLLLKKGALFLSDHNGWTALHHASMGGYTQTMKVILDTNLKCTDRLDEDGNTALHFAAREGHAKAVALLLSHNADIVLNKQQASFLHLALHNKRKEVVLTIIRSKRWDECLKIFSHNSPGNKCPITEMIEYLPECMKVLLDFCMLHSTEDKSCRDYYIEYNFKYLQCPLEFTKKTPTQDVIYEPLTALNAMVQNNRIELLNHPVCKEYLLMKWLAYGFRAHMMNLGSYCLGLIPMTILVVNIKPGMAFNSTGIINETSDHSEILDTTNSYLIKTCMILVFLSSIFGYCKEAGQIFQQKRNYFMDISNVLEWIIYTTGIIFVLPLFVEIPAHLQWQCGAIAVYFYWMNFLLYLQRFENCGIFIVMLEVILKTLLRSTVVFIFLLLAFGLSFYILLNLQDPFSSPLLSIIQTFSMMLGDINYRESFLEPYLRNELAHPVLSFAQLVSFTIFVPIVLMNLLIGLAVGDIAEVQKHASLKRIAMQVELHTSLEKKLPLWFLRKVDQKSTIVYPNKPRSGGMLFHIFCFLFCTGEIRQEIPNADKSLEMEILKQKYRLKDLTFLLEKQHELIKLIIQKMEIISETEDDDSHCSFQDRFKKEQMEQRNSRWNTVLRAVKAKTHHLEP

As for `CC12CCC(CC1=O)C2(C)C` (racemic) [camphor], in data set [1] (response after 30 seconds), the “perceived burning from nicotine, 30 seconds after initial exposure” value is listed as “significantly reduced perceived burning from nicotine”. In data set [1] (response immediately (within 5 seconds)), the “perceived burning from nicotine, immediately” value was “significantly reduced perceived burning from nicotine”. In addition, in the data set with mouth of participants (200 ppm camphor, 2 ml solution, swished 10 seconds, one line per participant), the “irritation felt at 200 ppm” value is “Y (3×) and N (6×)”. Moreover, the “irritation felt at 300 ppm” value in the data set with mouth of participants (300 ppm camphor, 2 ml solution, swished 10 seconds, one line per participant) is “Y (3×) and N (6×)”. In the data set with mouth of participants (400 ppm camphor, 2 ml solution, swished 10 seconds, one line per participant), the “irritation felt at 400 ppm” value was “Y (4×) and N (4×)”. The “irritation felt at 1000 ppm” value in the data set on mouth of participants (1000 ppm camphor, 2 ml solution, swished 10 seconds, one line per participant) is “N and Y (2×)”. In addition, the “irritation felt at 2000 ppm” value in the data set with mouth of participants (2000 ppm camphor, 2 ml solution, swished 10 seconds, one line per participant) is given as “Y”. Also, the “irritation felt at 4000 ppm” value with mouth of participants (4000 ppm camphor, 2 ml solution, swished 10 seconds, one line per participant) is “Y”. Moreover, the “irritation felt at 6000 ppm” value in the data set with mouth of participants (6000 ppm camphor, 2 ml solution, swished 10 seconds, one line per participant) is listed as “Y”. The “concentration at which a few participants were sensitive” value in the data set on mouth of participants (a few participants, sensitive only at higher concentrations) is on record as 1000-2000 ppm. Further, the “concentration at which most participants perceived tingling” value with mouth of participants (most participants) is reported as 200-300 ppm. For the same compound, in the data set with mouth of participants (n=9), the “mean threshold for producing irritation” value worked out at 655 ppm. Besides, the “Notes (sensation described by participant)” value in the data set with mouth of participants (one line per participant, concentrations in ppm) was “Tingling at 300, tingling no burning; also recorded: No Burning, slight tingling on edges; also recorded: Some burning and stinging at 200,”. Further, the “time at which the effect was strongest” value in data set [2] (12 nanogram (50 ppm) camphor pouch, asked at 2, 5 and 10 minutes) amounted to 10 min. Also, the “reduction of oral burning from snus pouch” value in data set [2] (12 nanogram (corresponding to 50 ppm) camphor per pouch versus control pouch) was “most effective in reducing oral burning”. The “inhibition of activation of nerve fibers induced by the nicotinic agonist nicotine” value in the data set on nerve fibers is reported as “effectively inhibit activation of nerve fibers”.
In the case of `CN1CCCC1c1cccnc1` (stereo not drawn) [nicotine], the “sensitization of TRPV1 receptors” value in the data set with TRPV1 receptors is listed as “sensitize TRPV1 receptors”. On TRPA1 receptors, the “sensitization of TRPA1 receptors” value is “as well as TRPA1 receptors”.
